Assay results as given in paper PMC4816952, “[^18F]FE@SNAP—a specific PET tracer for melanin-concentrating hormone receptor 1 imaging?” (EJNMMI Research, 2016).
Marks after values point to notes of the source that are not given here.

What was measured:
[1] = Biodistribution 45 min after IV injection; type: in vivo, Sprague-Dawley rats; settings: rats, 45 min after injection
Method: (§1) Conscious and freely moving rats of the baseline and blocking groups were always examined simultaneously: rats of the baseline group (n = 3) received vehicle (400 μL), and rats of the blocking group (n = 3) received SNAP-7941 (15 mg/kg; freshly dissolved in 400 μL) via the jugular vein 30 min prior to tracer application. Via the jugular vein, 51.33 ± 26.2 MBq of [^18F]FE@SNAP (specific activity 12.3–43.1 GBq/μmol; radiochemical purity ≥95 %; 30–100 μL) was then administered to all rats. After 45 min, rats were sacrificed by IV ketamine injection and decapitated, and the brains were removed and immediately quick frozen in isopentane (−45 °C) for ex vivo autoradiography. Other organs including the eyes, tongue, muscle, epidermal white adipose tissue (WATep), heart, lung, stomach, pancreas, liver, duodenum, colon, spleen, kidneys, adrenals, testis, bladder and bone as well as blood and urine were removed, weighed and measured in a gamma counter (2480 WIZARD^2, PerkinElmer). Radioactivity concentrations were normalized to dose and weight and expressed as percent injected dose per gram (%ID/g). To determine significant differences, a two-tailed t test with […] was performed using the statistics add-on in Microsoft Excel® 2013. A value of P < 0.05 was considered as significant.

human MCHR1 = target: human MCHR1; parameters: method as in PMID 24106662; settings: CHO cells expressing the human MCHR1; cited from earlier work
[2] = Blood metabolite analysis by radio-TLC; type: in vivo, Sprague-Dawley rats; settings: 45 min after tracer application, baseline group, n = 3, plasma
Method: For analysis of potential circulating metabolites, blood samples from the baseline group were collected into heparinized tubes and immediately stored on ice before processing. The blood was centrifuged (Hettich Rotanta/TRC; 3400×g, 4 min) to separate cellular components. Sample cleanup was performed by vortexing plasma with the equivalent amount of acetonitrile and by subsequent centrifugation (Hettich Universal 30RF; 23,000×g, 3 min) to remove precipitated proteins. The obtained supernatant was applied to radio-thin-layer chromatography (radio-TLC silica gel plates, mobile phase acetonitrile/water 70/30 v/v, application volume 2 μL on origin) and analysed via a Canberra-Packard Instant Imager.

MCHR1 [3] = target: T1, MCHR1 (Rattus norvegicus, UniProt P97639); test: Preliminary small-animal PET/MR imaging; type: in vivo; parameters: from tissue; host or cells: living rat (in vivo PET imaging); settings: healthy anaesthetized rat, baseline conditions, tail vein bolus
T1 sequence (P97639 whole entry): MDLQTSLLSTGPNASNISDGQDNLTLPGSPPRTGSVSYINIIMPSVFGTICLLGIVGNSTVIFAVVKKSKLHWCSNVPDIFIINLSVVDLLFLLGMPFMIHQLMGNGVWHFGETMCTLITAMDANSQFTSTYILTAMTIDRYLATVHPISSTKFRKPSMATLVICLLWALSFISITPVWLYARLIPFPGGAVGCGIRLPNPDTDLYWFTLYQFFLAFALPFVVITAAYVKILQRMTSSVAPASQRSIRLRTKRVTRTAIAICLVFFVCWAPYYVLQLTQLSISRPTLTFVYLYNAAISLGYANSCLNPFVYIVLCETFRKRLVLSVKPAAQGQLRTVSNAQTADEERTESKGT
Method: An anaesthetized rat (with 1.5–2.5 % isoflurane) was immobilized in a multimodal animal carrier unit (MACU; medres®—medical research GmbH, Cologne, Germany) and maintained at a body temperature of 37 °C throughout the whole experiment. [^18F]FE@SNAP (47.64 ± 1.23 MBq) was injected as a bolus via the lateral tail vein, and dynamic PET imaging (Siemens Inveon preclinical μPET/SPECT/CT system) was performed over 60 min. Immediately afterwards, T1-weighted high-resolution axial, coronary and sagittal brain MRI scans were performed using a Bruker BioSpec 94/30 USR small-animal MR system (Bruker BioSpin GmbH, Karlsruhe, Germany).

MCHR2 = target: MCHR2; parameters: method as in PMID 24106662; settings: second MCH receptor; cited from earlier work
MCHR1 [4] = target: T1, MCHR1; test: Ex vivo brain autoradiography after IV injection into the jugular vein of awake rats; type: in vivo, Sprague-Dawley rats; parameters: from tissue; host or cells: rat brain (hypothalamus, ventricular system) and peripheral organs after in vivo injection; settings: for Ratio Hypothalamus/non-target / Ratio Ventricle/non-target: ratio of ROIs (DLU/mm^2), 45 min after injection, n = 3
Method: as §1
Whole rat brains (n = 6) were cut in a cryo-microtome (Microm HM 560, Thermo Scientific) into 50-μm-thick slices and thaw-mounted onto superfrost slides (Menzel-Gläser SUPERFROST® PLUS, Thermo Scientific). Samples were placed on Phosphor Imager plates (Multisensitive Phosphor Screens Long Type MS, PPN 7001724, PerkinElmer) for an exposure period of 18 h and then analysed with a Cyclone Phosphor Imager (Cyclone Plus Storage Phosphor System, PerkinElmer). Data analysis was performed with OptiQuant® data processing software Version 5.0. Due to high-MCHR1 appearance, special emphasis was laid on the hypothalamus and the ventricular system. […] To facilitate comparison, manually defined template ROIs fitting to all slices (30 slices/brain; bregma −1.0 to −2.5 mm) were applied. […] In detail, ratios of hypothalamus/non-target and ventricle/non-target were calculated. Significant differences were calculated as described before.
Fig. 2 Scheme of the ROIs for calculation of ratios. 1 (yellow): ventricular system; 2 (green): hypothalamic area; 3 (pink): non-target region; and 4 (orange): whole brain. It is noteworthy that ROIs 1 and 2 include the target areas as well as some background areas, due to varying target size throughout the different brain levels (bregma)

[5] = blocking with SNAP-7941 15 mg/kg 30 min prior

COCC1=C(C(=O)OCC[18F])C(c2ccc(F)c(F)c2)N(C(=O)NCCCN2CCC(c3cccc(NC(C)=O)c3)CC2)C(=O)N1 (stereo not shown) [[^18F]FE@SNAP]
defluorination / uptake of ^18F-fluoride into the bone [1]: no defluorination
Kd (human MCHR1): 2.9 nM
parent compound in the blood [2]: 51.50 ± 5.5%
tracer uptake in brain (small-animal PET) (MCHR1 [3]): high tracer uptake in the ventricular system
Ki (MCHR2): > 1000 nM
Ratio Hypothalamus/non-target (MCHR1 [4]; baseline (vehicle)): 2.14 ± 0.9
Ratio Ventricle/non-target (MCHR1 [4]; baseline (vehicle)): 2.20 ± 0.4
whole-brain uptake, blocking group versus baseline animals (MCHR1 [4]; blocking with 15 mg/kg SNAP-7941, n = 3 per group): significantly higher
Ratio Hypothalamus/non-target (MCHR1 [4]; [5]): 1.58 ± 0.5^a
Ratio Ventricle/non-target (MCHR1 [4]; [5]): 1.38 ± 0.2^a
